{
  "source": "patent US20220257597A1",
  "about": "“Methods of Administering Elagolix” (AbbVie Inc., priority 2021, published 2022)",
  "key": {"[1]": {"test": "Phase 1 open-label study: coadministration of combined oral contraceptive (EE+LNG) with elagolix sodium, pharmacokinetics, safety and tolerability", "format": "in vivo, human", "settings": "healthy premenopausal female subjects", "experimental": "Objective: To evaluate the effect of elagolix on the pharmacokinetics, safety, and tolerability of a single dose of a combined oral contraceptive (COC) containing EE and LNG in healthy premenopausal female subjects. […] [table] […] Diagnosis and Main Criteria for Inclusion: Subjects were premenopausal females, and age was between 18 and 49 years, inclusive. Test Product, Dose/Strength/Concentration, and Mode of Administration: […] EE/LNG 0.02 mg/0.1 mg tablet; All study drugs were administered orally. Duration of Treatment: […] EE/LNG: 0.02 mg/0.1 mg on two separate occasions. Criteria for Evaluation: Pharmacokinetic: Cmax, Tmax, t1/2 and AUC. Safety: Vital signs, physical examinations, laboratory tests, and adverse events. […] The tabulation of the number of subjects with treatment-emergent adverse events also was provided with further breakdowns by severity rating and relationship to study drug."}, "CYP2C19": {"biological_target": "CYP2C19 (Homo sapiens, UniProt P33261)", "sequence (P33261 whole entry)": "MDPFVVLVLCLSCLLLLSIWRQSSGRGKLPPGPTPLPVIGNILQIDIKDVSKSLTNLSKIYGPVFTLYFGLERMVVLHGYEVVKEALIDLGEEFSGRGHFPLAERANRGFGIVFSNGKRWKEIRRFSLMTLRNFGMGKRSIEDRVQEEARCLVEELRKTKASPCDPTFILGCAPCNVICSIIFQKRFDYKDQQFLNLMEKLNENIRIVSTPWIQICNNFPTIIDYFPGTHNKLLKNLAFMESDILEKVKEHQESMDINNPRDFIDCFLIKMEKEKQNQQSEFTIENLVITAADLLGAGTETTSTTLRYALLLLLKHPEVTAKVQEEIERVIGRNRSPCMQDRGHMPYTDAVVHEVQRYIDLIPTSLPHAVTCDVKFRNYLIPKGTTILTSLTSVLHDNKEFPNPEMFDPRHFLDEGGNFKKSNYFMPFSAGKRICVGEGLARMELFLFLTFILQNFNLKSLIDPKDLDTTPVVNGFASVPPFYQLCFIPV", "test": "In vitro studies: CYP2C19 inhibition", "format": "in vitro ADME"}, "OATP1B1": {"biological_target": "T1, OATP1B1 (Homo sapiens, UniProt Q9Y6L6)", "T1 sequence (Q9Y6L6 1-691)": "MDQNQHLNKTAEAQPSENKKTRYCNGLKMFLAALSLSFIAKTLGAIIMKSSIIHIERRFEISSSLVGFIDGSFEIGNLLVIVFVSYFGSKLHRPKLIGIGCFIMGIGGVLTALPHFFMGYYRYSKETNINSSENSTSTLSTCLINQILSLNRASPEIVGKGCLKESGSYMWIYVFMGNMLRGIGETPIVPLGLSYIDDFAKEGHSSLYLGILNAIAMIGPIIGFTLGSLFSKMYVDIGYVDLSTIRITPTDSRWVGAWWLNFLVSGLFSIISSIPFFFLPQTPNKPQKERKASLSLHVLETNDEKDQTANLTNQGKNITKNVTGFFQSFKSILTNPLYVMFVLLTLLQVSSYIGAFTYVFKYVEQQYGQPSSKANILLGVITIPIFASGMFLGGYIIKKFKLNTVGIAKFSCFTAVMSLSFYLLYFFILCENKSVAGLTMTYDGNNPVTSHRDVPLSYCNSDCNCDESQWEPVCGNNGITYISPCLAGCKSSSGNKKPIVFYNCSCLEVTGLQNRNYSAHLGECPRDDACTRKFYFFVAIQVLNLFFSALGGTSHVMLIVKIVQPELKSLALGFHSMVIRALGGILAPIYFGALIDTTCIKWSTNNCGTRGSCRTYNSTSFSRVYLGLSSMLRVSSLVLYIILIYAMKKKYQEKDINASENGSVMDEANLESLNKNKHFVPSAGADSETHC", "test": "Substrate of OATP1B1", "format": "in vitro ADME"}, "[2]": {"test": "Pre- and postnatal development study in rats", "format": "in vivo, rat", "settings": "for maternal plasma concentration relative to maximal elagolix concentration (Cmax) in humans at the MRHD: lactation day 21", "experimental": "In a pre- and postnatal development study in rats, elagolix was given in the diet to achieve doses of 0, 100 and 300 mg/kg/day (25 per dose group) from gestation day 6 to lactation day 20. […] Pup survival was decreased from birth to postnatal day 4. […] Smaller body size and effect on startle response were associated with lower pup weights at 300 mg/kg/day. Post-weaning growth, development and behavioral endpoints were unaffected."}},
  "data": [
    {"smiles": "COc1cccc(-c2c(C)n(Cc3c(F)cccc3C(F)(F)F)c(=O)n(C[C@H](NCCCC(=O)O)c3ccccc3)c2=O)c1F", "note": "[elagolix, 4-((R)-2-[5-(2-fluoro-3-methoxy-phenyl)-3-(2-fluoro-6-trifluoromethyl-benzyl)-4-methyl-2,6-dioxo-3,6-dihydro-2H-pyrimidin-1-yl]-1-phenyl-ethylamino)-butyric acid]", "values": [
      {"measurement": "tolerability of co-administration of elagolix and EE/LNG", "setting": "[1]", "result": "generally well tolerated"},
      {"measurement": "inhibitor of CYP2C19", "setting": "CYP2C19", "result": "weak inhibitor"},
      {"measurement": "substrate of OATP1B1", "setting": "OATP1B1", "result": "substrate"},
      {"measurement": "post-weaning growth, development and behavioral endpoints", "setting": "[2]", "result": "unaffected"},
      {"measurement": "maternal plasma concentration relative to maximal elagolix concentration (Cmax) in humans at the MRHD", "setting": "[2]; 100 mg/kg/day", "result": 0.04, "unit": "fold"},
      {"measurement": "litter findings at the highest dose", "setting": "[2]; 300 mg/kg/day", "result": "two dams had total litter loss, and one failed to deliver"},
      {"measurement": "maternal plasma concentration relative to maximal elagolix concentration (Cmax) in humans at the MRHD", "setting": "[2]; 300 mg/kg/day", "result": 0.1, "unit": "fold"},
      {"measurement": "pup birth weights and body weight gains", "setting": "[2]; 300 mg/kg/day, pre-weaning period", "result": "lower birth weights and lower body weight gains"},
      {"measurement": "pup survival from birth to postnatal day 4", "setting": "[2]; highest dose", "result": "decreased"}
    ]}
  ]
}
